In patent US20110251085A1, “IN VITRO METHOD TO DETERMINE WHETHER A DRUG CANDIDATE ACTIVE AGAINST A TARGET PROTEIN IS ACTIVE AGAINST A VARIANT OF SAID PROTEIN” (VIVALIS, priority 2008, published 2011):
Entries after “also recorded” stand apart in the source; their conditions may differ. Read-outs that look alike come from different tables or passages of the source.

Key:
ER = test: Yeast two-hybrid spot test, control clone ER + 3D-sensor No 30-2; type: cell-based
Source text: (a) Isolation of peptides interacting with the NS5BΔ21 in the yeast two-hybrid-system. Yeast cells carrying the bait (NS5BΔ21-LexA) were transformed with the prey represented by a library of random peptides (in frame with the viral VP16 activation domain). Colonies growing on selective medium and staining blue allowed the isolation of individual peptides that would specifically interact with the polymerase. (b) Isolation of conformation sensitive peptides. The interacting peptides were then tested in presence of ligands known to induce conformational changes in the bait NS5B. The “3D-sensors” were thus identified as the ones whose binding to the target polymerase was prevented by known anti-NS5B. The corresponding colonies didn't show any expression of the selection or reporter gene. (c) Characterization of NS5BΔ21 “3D-sensors” in a spot test. Here were represented 2 selected yeast colonies: one carrying the ER and its specific peptide called No 30-2 isolated previously and used as a control, the other carrying the NS5BΔ21 and its specific peptide called N21C272. Both clones were spotted on selective medium lacking histidine, leucine and tryptophane, supplemented or not with polymerase ligands and overlayed with an X-Gal staining The NS5BΔ21+N21C272 clone grew on selective medium in the absence of any NS5B ligand and stained positive for LacZ. […]

native NS5BΔ21 = molecular target: T1, native NS5BΔ21 (Hepatitis C virus genotype 1b, UniProt P26662); test: 3D-Screen-NS5B platform, luciferase reporter, Hela cells, native NS5BΔ21; type: cell-based, HCV genotype 1b; settings: HeLa, 24 hours; for inhibition at 10 µM: 10 uM final concentration, 3D-sensor N21C272, versus DMSO
T1 construct: expressed in transfected cells; host or cells: Hela cells, plasmid pVVS478
Description: Transfections were performed for 2 hours in 100 mm dishes in 2 to 4 million cells with 5 to 20 ug of total DNA complexed to jetPEI (PolyPLus transfection, Illkirch, France) with a N/P ratio of 8 The optimal ratio between the plasmids encoding for the luciferase reporter, the target and the selected 3Dsensor was: 3 ug/1 ug/0.5 ug. Cells were dissociated and 25000 cells per well were seeded in 96 well culture treated plates (BD Biosciences, Erembodegem, Belgium).
Compound library's plates were thawed at room temperature. Drugs were handled by a Genesis workstation (Tecan, Lyon, France) and added to the cells at a 5 uM (in 0.5% DMSO) final concentration. Screening was performed by runs of twenty plates. Hits were identified by measurement of the luciferase activity.
Cell culture supernatant was discarded and 100 ul of Lysis buffer were added to each well. Following […] of vigorous shaking, the lysate was transferred to white opaque 96 well-plates and 100 ul of Luciferin buffer were added. Chemi-luminescence measurement was performed immediately using a Microlumat LB96 luminometer (Berthold, Thoiry, France) with 1 or 10 sec integration time.
Selected hits were synthesized and tested at concentrations varying between 0.01 uM and 100 uM final concentration so as to determine their IC50 on 3 independent experiments.
3D-sensors confirmed in yeast were further investigated in human cells. Among the reasons of choosing Hela cells figured their wide use, easiness of manipulation and capacity of replicating subgenomic HCV replicons (Zhu et al., 2003; Kato et al., 2005).
To validate whether drug's action on our system was stokiometric or not, Hela cells were transiently transfected with three expression plasmids encoding the reporter gene luciferase, the target protein and the conformation sensitive peptide N21C272. After incubation with increasing amounts of reference drugs cVVS-023476 or cVVS-023477, luciferase expression was measured.

NS5BΔ21 = molecular target: T2, NS5BΔ21 (Hepatitis C virus genotype 1b, UniProt P26662); type: cell-based, HCV genotype 1b; settings: selective medium lacking histidine, leucine and tryptophane, supplemented with ligand, X-Gal overlay
T2 construct: lexA/truncated HCV polymerase lacking the C-terminal 21 amino-acids fusion protein as a bait; expressed in transfected cells; host or cells: Saccharomyces cerevisiae L40, plasmid pVVS468
Description: Yeast cells carrying the bait (NS5BΔ21-LexA) were transformed with the prey represented by a library of random peptides (in frame with the viral VP16 activation domain). […] The interacting peptides were then tested in presence of ligands known to induce conformational changes in the bait NS5B.
The naïve yeast was transformed with the pVVS468 (NS5BΔ21 fused to LexA) according to the Lithium Acetate transformation protocol (Schiestl et al, 1989). […] Resulting double transformants were spread on SD Agar medium lacking Tryptophan and Leucine, and incubated for 48 hours at 30° C. Colonies were then scraped and mixed. 1/500th of the suspension obtained was plated on SD Agar medium lacking Tryptophan, Leucine and Histidine to identify HIS3 reporter's activation. After 3 to 5 days of growth, an X-Gal overlay was performed to identify LacZ activation. An X-Gal solution was mixed with an equal volume of 1% agarose cooled to 50° C. then poured slowly over yeast colonies on the surface of agar plates. The individual clones that stained blue were picked up to be grown overnight in deep wells in order to be further analyzed.
Yeast colonies containing a peptide interacting with the bait were grown overnight in 96-well deepwells in trp-leu-liquid medium. They were then spotted using a plugger either on trp-leu-his-or trp-leu-solid medium supplemented with different concentrations of specific or non specific drugs or an equivalent amount of solvent (DMSO). […] Result was confirmed at least 3 times.
Yeast two-hybrid experiments were carried in the L40 strain (ATCC, Molsheim, France) transformed with a lexA/truncated HCV polymerase lacking the C-terminal 21 amino-acids fusion protein as a bait and the VVS001 peptide library as a prey. […] Conformation sensitive peptides or “3D-sensors” were then identified by addition to the selected individual yeast colonies of cVVS-023477 or cVVS-023476, two anti-NS5B drugs known to induce conformational changes in the target polymerase (FIG. 1b).

native NS4A-NS3 protease = molecular target: T3, native NS4A-NS3 protease (Hepatitis C virus genotype 1b, UniProt P26662, I1158V/V1140I); test: 3D-Screen NS4A-NS3 protease platform, luciferase reporter, Hela cells, native; type: cell-based, HCV genotype 1b; settings: HeLa; 2 uM final concentration, 3D-sensor V7-62
T3 construct: the NS3 protease (residues 3-181); expressed in transfected cells; host or cells: Hela cells
Description: (§3) Cell culture supernatant was discarded and 100 ul of Lysis buffer were added to each well. Following 10 nm of vigorous shaking, the lysate was transferred to white opaque 96 well-plates and 100 ul of Luciferin buffer were added. Chemi-luminescence measurement was performed immediately using a Microlumat LB96 luminometer (Berthold, Thoiry, France) with 1 or 10 sec integration time.
3D-sensors confirmed in yeast were further investigated in Hela cells.

[1] = molecular target: T4, native NS4A-NS3 full length protein (Hepatitis C virus genotype 1b, UniProt P26662); test: 3D-Screen NS4A-NS3 full length platform, luciferase reporter, Hela cells, native; type: cell-based, HCV genotype 1b; design: the GSGS linker and the NS3 protease (residues 3-631); expressed in transfected cells; settings: HeLa; 2 uM final concentration, 3D-sensor H5-34
Description: as §3

[2] = molecular target: T4, native NS4A-NS3 full length protein; test: 3D-Screen NS4A-NS3 full length mutant profiling platform, Huh7 cells, 3D-sensor VF-9A11, native; type: cell-based, HCV genotype 1b; design: the GSGS linker and the NS3 protease (residues 3-631); expressed in transfected cells; host or cells: Huh7 hepatoma cells
Description: (§1) Hela cells (ATCC, Molsheim, France) were maintained in EMEM (Minimum Essential Medium Eagle with Earle's Balanced Salt solution without L-Glutamine; Biowhittaker/Cambrex, East Rutherford, N.J., USA) supplemented with 10% FBS (JRH), 2 mM Glutamine (Biowhittaker/Cambrex), 1% Non-essential Amino acids (Biowhittaker/Cambrex), 100 units/ml Penicillin and 100 ug/ml Streptomycin. Cells were kept in a humidified 5% CO2 atmosphere at 37° C. and dissociated using Trypsine-EDTA (1×) when reaching 80-90% confluence. Huh-7 hepatoma derived cells (Nakabayashi H et al, 1982) were maintained in half volume of DMEM (Dulbecco's […] Medium without L-Glutamine; Lonza, Basel, Switzerland) and half volume of Ham's F12 medium (Lonza, Basel, Switzerland) supplemented with 10% FBS (SAFC, USA), 1 mM Glutamine (Lonza, Basel, Switzerland), 0.5 mM Sodium pyruvate (Lonza, Basel, Switzerland), 100 units/ml Penicillin and 100 ug/ml Streptomycin. Cells were kept in a humidified 5% CO2 atmosphere at 37° C. and dissociated using Trypsine-EDTA (1×) when reaching 80-90% confluence. […]
(§2) Cell culture supernatant was discarded and 100 ul of Lysis buffer were added to each well. […] Chemi-luminescence measurement was performed immediately using a Microlumat LB96 luminometer (Berthold, Thoiry, France) with 1 or 10 sec integration time.

[3] = molecular target: T5, NS4A-NS3 full length protein D168V (Hepatitis C virus genotype 1b, UniProt P26662, D1194V); test: 3D-Screen NS4A-NS3 full length mutant profiling platform, Huh7 cells, D168V; type: cell-based, HCV genotype 1b
T5 construct: the GSGS linker and the NS3 protease (residues 3-631); expressed in transfected cells; host or cells: Huh7 hepatoma cells
Description: as §1, §2

protease = settings: described in Lamarre et al, 2003; cited from earlier work
[4] = molecular target: T6, NS4A-NS3 full length protein A156V (Hepatitis C virus genotype 1b, UniProt P26662, A1182V); test: 3D-Screen NS4A-NS3 full length mutant profiling platform, Huh7 cells, A156V; type: cell-based, HCV genotype 1b
T6 construct: the GSGS linker and the NS3 protease (residues 3-631); expressed in transfected cells; host or cells: Huh7 hepatoma cells
Description: as §1, §2

[5] = molecular target: NS5BΔ21 L30S mutant fused to Gal4 DBD (pVVS474) (yeast; hepatitis C virus genotype 1b), P26662; test: cell-based or functional assay
[6] = molecular target: NS5BΔ21 L30R mutant fused to Gal4 DBD (pVVS475) (yeast; hepatitis C virus genotype 1b), P26662; test: cell-based or functional assay
[7] = molecular target: single chain NS4A-NS3 full length A156V mutant fused to Gal4 DBD (pVVS783) (yeast; hepatitis C virus genotype 1b), P26662; test: cell-based or functional assay
[8] = molecular target: single chain NS4A-NS3 full length D168V mutant fused to Gal4 DBD (yeast; hepatitis C virus genotype 1b), P26662; test: cell-based or functional assay
[9] = molecular target: single chain NS4A-NS3 full length A156S mutant fused to Gal4 DBD (yeast; hepatitis C virus genotype 1b), P26662; test: cell-based or functional assay
[10] = molecular target: single chain NS4A-NS3 full length protein (native) fused to the yeast Gal4 DBD (pVVS772) (yeast; hepatitis C virus genotype 1b), P26662; test: cell-based or functional assay
[11] = molecular target: single chain NS4A-NS3 full length T54A mutant fused to Gal4 DBD (yeast; hepatitis C virus genotype 1b), P26662; test: cell-based or functional assay
[12] = molecular target: single chain NS4A-NS3 full length A156T mutant fused to Gal4 DBD (yeast; hepatitis C virus genotype 1b), P26662; test: cell-based or functional assay
[13] = molecular target: single chain NS4A-NS3 full length R109K mutant fused to Gal4 DBD (yeast; hepatitis C virus genotype 1b), P26662; test: cell-based or functional assay
[14] = Huh7, VF-9A11, listed as cVVS-23591

For `C[C@]12CC[C@@H]3c4ccc(O)cc4CC[C@H]3[C@@H]1CC[C@@H]2O` [Estradiol], the “sensitivity of the control clone (ER + 3D sensor No 30.2 interaction) to ligand” value (ER) was “active”.

For `O=C(O)CP(=O)(O)O` [Phosphonoacetic acid], the inhibition at 10 µM (native NS5BΔ21) was -2.2%, the “growth on selective medium and LacZ staining of the NS5BΔ21+N21C272 yeast clone” value (NS5BΔ21) was “had no effect” and the “growth on selective medium and LacZ staining of the NS5BΔ21+N21C272 yeast clone” value (NS5BΔ21; listed as PAA) was “didn't show any effect”.

Work on `CCC[C@H](NC(=O)[C@@H]1[C@H]2CCC[C@H]2CN1C(=O)[C@@H](NC(=O)[C@@H](NC(=O)c1cnccn1)C1CCCCC1)C(C)(C)C)C(=O)C(=O)NC1CC1` [cVVS-023518, 2-(2-{2-Cyclohexyl-2-[(pyrazine-2-carbonyl)-amino]-acetylamino}-3,3-dimethyl-butyryl)-octahydro-cyclopenta[c]pyrrole-1-carboxylic acid (1-cyclopropylaminooxalyl-butyl)-amide] yielded an inhibition at 2 µM (native NS4A-NS3 protease) of 90% and an inhibition at 2 µM [1] of 60%.

With `O=C(O)P(=O)(O)O` [Foscarnet] the inhibition at 10 µM (native NS5BΔ21) was 11.7% and the “growth on selective medium and LacZ staining of the NS5BΔ21+N21C272 yeast clone” value (NS5BΔ21) was “had no effect; also recorded: didn't show any effect”.

For `NC(=O)c1ncn([C@@H]2O[C@H](CO)[C@@H](O)[C@H]2O)n1` [Ribavirin], the inhibition at 75 µM (native NS5BΔ21; 75 uM final concentration, 3D-sensor N21C272) was 8.7%.

For “VFII-N4: NS3 full length 3D-sensor peptide VNAWAWGW (SEQ ID No 65) (NS3 full length peptide sensor VFII-N4)”, the “sensitivity of the 3D-sensor to Telaprevir and Ciluprevir” value [2] was “as sensitive as the 3D-Sensor VF-9A11”.

For `COc1ccc2c(O[C@@H]3C[C@H]4C(=O)N[C@]5(C(=O)O)C[C@H]5/C=C\CCCCC[C@H](NC(=O)OC5CCCC5)C(=O)N4C3)cc(-c3csc(NC(C)C)n3)nc2c1` [cVVS-023951, (1S,4R,6S,7Z,14S,18R)-14-cyclopentyloxycarbonylamino-18-[2-(2-isopropylamino-thiazol-4-yl)-7-methoxyquinolin-4-yloxy]-2,15-dioxo-3,16-diazatricyclo[14.3.0.04.6]nonadec-7-ene-4-carboxylic acid], the “resistance profile: sensitivity of the platform to the compound's inhibition” value ([2]; native, Huh7, VF-9A11) was “active”, the “resistance profile: sensitivity of the platform to the compound's inhibition” value ([3]; Huh7, VF-9A11) was “high resistance” and the “resistance profile: sensitivity of the platform to the compound's inhibition” value [3, 14] was “resistance in the same range as what was previously reported”. For the same molecule, the “activity on the protease” value (protease) was “low nanomolar range”, the “resistance profile: sensitivity of the platform to the compound's inhibition” value ([4]; Huh7, VF-9A11) was “high resistance” and the “resistance profile: sensitivity of the platform to the compound's inhibition” value [4, 14] was “resistance in the same range as what was previously reported”.

For DGCARCVASVQLYGD (modifications not checked) [3D-sensor N21C272 fused to the VP16 activation domain], the luciferase signal [5] was 7640 RLU and the luciferase signal [6] was 3100 RLU.

Work on GTQKEAVIYPCYVPW (modifications not checked) [3D-sensor VF-9A11 fused to the VP16 activation domain] yielded a luciferase signal over background [7] of over 3, a luciferase signal over background [8] of over 3 and a luciferase signal over background [9] of over 3. For the same molecule, the luciferase signal over background [10] was over 3, the luciferase signal over background [11] was over 3 and the luciferase signal over background [12] was over 3. For the same molecule, the luciferase signal over background [13] was over 3.
